For six molecules, mutagenic call results are on record in PubChem BioAssay AID1259407 (Chemical Carcinogenesis Research Information System (CCRIS), 2018).

Calls of active or inactive are those of the source. How the calls were made is not given here.

For the series, the system named is CCRIS mutagenicity, Ames/micronucleus/aberration tests. The experiment in a line: CCRIS mutagenicity studies.
Setting [1] is: Test System: AMES SALMONELLA TYPHIMURIUM, Strain/Indicator: TA98, Metabolic Activation: NONE, Method: PREINCUBATION
Where [2] appears, read: Test System: AMES SALMONELLA TYPHIMURIUM, Strain/Indicator: TA98, Metabolic Activation: NONE, Method: STANDARD PLATE.
The mark [3] stands for this setting: Test System: AMES SALMONELLA TYPHIMURIUM, Strain/Indicator: TA100, Metabolic Activation: NONE, Method: PREINCUBATION
[4] abbreviates: Test System: AMES SALMONELLA TYPHIMURIUM, Strain/Indicator: TA100, Metabolic Activation: NONE, Method: STANDARD PLATE.
Setting [5] is: Test System: AMES SALMONELLA TYPHIMURIUM, Strain/Indicator: TA1535, Metabolic Activation: NONE, Method: PREINCUBATION
Setting [6] is: Test System: AMES SALMONELLA TYPHIMURIUM, Strain/Indicator: TA1535, Metabolic Activation: NONE, Method: STANDARD PLATE.
Setting [7] is: Test System: AMES SALMONELLA TYPHIMURIUM, Strain/Indicator: TA1538, Metabolic Activation: NONE, Method: STANDARD PLATE.
Setting [8] is: Test System: MOUSE LYMPHOMA, Strain/Indicator: L5178Y (TK+/TK-), Metabolic Activation: RAT, LIVER, S-9, AROCLOR 1254, Method: SUSPENSION/PLATE.

Take `C[Si](C)(C)Cl`: the mutagenic call runs as follows: (Test System: AMES SALMONELLA TYPHIMURIUM, Strain/Indicator: TA98, Metabolic Activation: HAMSTER, LIVER, S-9, AROCLOR 1254, Method: PREINCUBATION) “inactive; negative”; under setting [1], “inactive; negative”; under setting [2], “inactive; negative”; (Test System: AMES SALMONELLA TYPHIMURIUM, Strain/Indicator: TA98, Metabolic Activation: RAT LIVER S-9, AROCLOR 1254, Method: STANDARD PLATE) “inactive; negative”; (Test System: AMES SALMONELLA TYPHIMURIUM, Strain/Indicator: TA98, Metabolic Activation: RAT, LIVER, S-9, AROCLOR 1254, Method: PREINCUBATION) “inactive; negative”; (Test System: AMES SALMONELLA TYPHIMURIUM, Strain/Indicator: TA100, Metabolic Activation: HAMSTER, LIVER, S-9, AROCLOR 1254, Method: PREINCUBATION) “inactive; negative”. Also, the mutagenic call is “inactive; negative” under setting [3]; “inactive; negative” under setting [4]; “inactive; negative” (Test System: AMES SALMONELLA TYPHIMURIUM, Strain/Indicator: TA100, Metabolic Activation: RAT LIVER S-9, AROCLOR 1254, Method: STANDARD PLATE); “inactive; negative” (Test System: AMES SALMONELLA TYPHIMURIUM, Strain/Indicator: TA100, Metabolic Activation: RAT, LIVER, S-9, AROCLOR 1254, Method: PREINCUBATION); “inactive; negative” (Test System: AMES SALMONELLA TYPHIMURIUM, Strain/Indicator: TA1535, Metabolic Activation: HAMSTER, LIVER, S-9, AROCLOR 1254, Method: PREINCUBATION); “inactive; negative” under setting [5]. The mutagenic call was “inactive; negative” under setting [6]; “inactive; negative” (Test System: AMES SALMONELLA TYPHIMURIUM, Strain/Indicator: TA1535, Metabolic Activation: RAT LIVER S-9, AROCLOR 1254, Method: STANDARD PLATE); “inactive; negative” (Test System: AMES SALMONELLA TYPHIMURIUM, Strain/Indicator: TA1535, Metabolic Activation: RAT, LIVER, S-9, AROCLOR 1254, Method: PREINCUBATION); “inactive; negative” (Test System: AMES SALMONELLA TYPHIMURIUM, Strain/Indicator: TA1537, Metabolic Activation: HAMSTER, LIVER, S-9, AROCLOR 1254, Method: PREINCUBATION); “inactive; negative” (Test System: AMES SALMONELLA TYPHIMURIUM, Strain/Indicator: TA1537, Metabolic Activation: NONE, Method: PREINCUBATION); “inactive; negative” (Test System: AMES SALMONELLA TYPHIMURIUM, Strain/Indicator: TA1537, Metabolic Activation: NONE, Method: STANDARD PLATE). For the same molecule, the mutagenic call was “inactive; negative” (Test System: AMES SALMONELLA TYPHIMURIUM, Strain/Indicator: TA1537, Metabolic Activation: RAT LIVER S-9, AROCLOR 1254, Method: STANDARD PLATE); “inactive; negative” (Test System: AMES SALMONELLA TYPHIMURIUM, Strain/Indicator: TA1537, Metabolic Activation: RAT, LIVER, S-9, AROCLOR 1254, Method: PREINCUBATION); “inactive; negative” (Test System: AMES SALMONELLA TYPHIMURIUM, Strain/Indicator: TA1538, Metabolic Activation: HAMSTER, LIVER, S-9, AROCLOR 1254, Method: PREINCUBATION); “inactive; negative” (Test System: AMES SALMONELLA TYPHIMURIUM, Strain/Indicator: TA1538, Metabolic Activation: NONE, Method: PREINCUBATION); “inactive; negative” under setting [7]; “inactive; negative” (Test System: AMES SALMONELLA TYPHIMURIUM, Strain/Indicator: TA1538, Metabolic Activation: RAT LIVER S-9, AROCLOR 1254, Method: STANDARD PLATE). For the same molecule, the mutagenic call reads like this: (Test System: AMES SALMONELLA TYPHIMURIUM, Strain/Indicator: TA1538, Metabolic Activation: RAT, LIVER, S-9, AROCLOR 1254, Method: PREINCUBATION) “inactive; negative”; (Test System: E. COLI, Strain/Indicator: P3078 POLA, Metabolic Activation: NONE, Method: SPOT TEST) “inactive; negative”; (Test System: E. COLI, Strain/Indicator: P3078 POLA, Metabolic Activation: RAT LIVER S-9, AROCLOR 1254, Method: SPOT TEST) “inactive; negative”; (Test System: E. COLI, Strain/Indicator: W3110, Metabolic Activation: NONE, Method: SPOT TEST) “inactive; negative”; (Test System: E. COLI, Strain/Indicator: W3110, Metabolic Activation: RAT LIVER S-9, AROCLOR 1254, Method: SPOT TEST) “inactive; negative”; under setting [8], “inactive; negative. reevaluation of results: negative”. For the same molecule, for the setting “Test System: MOUSE LYMPHOMA, Strain/Indicator: L5178Y (TK+/TK-), Metabolic Activation: RAT, LIVER, S-9, Method: SUSPENSION/PLATE”, the mutagenic call was “inactive; negative”.
Consider `O=c1cccccc1O`, for which the mutagenic call is “active; positive. reevaluation of results: positive” (Test System: MOUSE LYMPHOMA, Strain/Indicator: L5178Y (TK+/TK-), Metabolic Activation: NONE, Method: SUSPENSION/PLATE) and “inactive; positive. reevaluation of results: negative” under setting [8].
Regarding `O/C=C/Cc1ccc2c(c1)OCO2`, for the setting “Test System: UDS HUMAN FIBROBLASTS, Strain/Indicator: THY INCORP (NON-S-PHASE), Metabolic Activation: NONE, Method: AUTORADIOGRAPHY”, the mutagenic call was “active; positive”.
Take `c1ccc2n[nH]nc2c1`: the mutagenic call (Test System: AMES SALMONELLA TYPHIMURIUM, Strain/Indicator: TA97, Metabolic Activation: HAMSTER, LIVER, S-9, AROCLOR 1254 (10%), Method: PREINCUBATION) is “inactive; negative”; the mutagenic call (Test System: AMES SALMONELLA TYPHIMURIUM, Strain/Indicator: TA97, Metabolic Activation: NONE, Method: PREINCUBATION) is “inactive; negative”; the mutagenic call (Test System: AMES SALMONELLA TYPHIMURIUM, Strain/Indicator: TA97, Metabolic Activation: RAT, LIVER, S-9, AROCLOR 1254 (10%), Method: PREINCUBATION) is “inactive; negative”; the mutagenic call (Test System: AMES SALMONELLA TYPHIMURIUM, Strain/Indicator: TA98, Metabolic Activation: HAMSTER, LIVER, S-9, AROCLOR 1254 (10%), Method: PREINCUBATION) was “inactive; negative”; the mutagenic call under setting [1] is “inactive; negative”; the mutagenic call (Test System: AMES SALMONELLA TYPHIMURIUM, Strain/Indicator: TA98, Metabolic Activation: RAT, LIVER, S-9, AROCLOR 1254 (10%), Method: PREINCUBATION) is “inactive; negative”. Further, the mutagenic call was “inactive; negative” (Test System: AMES SALMONELLA TYPHIMURIUM, Strain/Indicator: TA100, Metabolic Activation: HAMSTER, LIVER, S-9, AROCLOR 1254 (10%), Method: PREINCUBATION); “inactive; negative” under setting [3]; “inactive; negative” (Test System: AMES SALMONELLA TYPHIMURIUM, Strain/Indicator: TA100, Metabolic Activation: RAT, LIVER, S-9, AROCLOR 1254 (10%), Method: PREINCUBATION); “active; positive” (Test System: AMES SALMONELLA TYPHIMURIUM, Strain/Indicator: TA1535, Metabolic Activation: HAMSTER, LIVER, S-9, AROCLOR 1254 (10%), Method: PREINCUBATION); “inactive; negative” under setting [5]; “active; positive” (Test System: AMES SALMONELLA TYPHIMURIUM, Strain/Indicator: TA1535, Metabolic Activation: RAT, LIVER, S-9, AROCLOR 1254 (10%), Method: PREINCUBATION). For the same molecule, the mutagenic call (Test System: E. COLI, Strain/Indicator: WP2 UVRA, Metabolic Activation: MOUSE, LIVER, S-9, AROCLOR 1254, Method: STANDARD PLATE) is “inactive; negative”.
With `C=CCCCCCCCC`, the mutagenic call is “inactive; negative” (Test System: AMES SALMONELLA TYPHIMURIUM, Strain/Indicator: TA98, Metabolic Activation: MOUSE, LIVER, S-9, Method: STANDARD PLATE); “inactive; negative” under setting [2]; “inactive; negative” (Test System: AMES SALMONELLA TYPHIMURIUM, Strain/Indicator: TA100, Metabolic Activation: MOUSE, LIVER, S-9, Method: STANDARD PLATE); “inactive; negative” under setting [4]; “inactive; negative” under setting [6]; “inactive; negative” under setting [7].
On to `CCC(C)OC(=O)C=Cc1ccc([N+](=O)[O-])o1` (centres undefined), for which, under setting [1], the mutagenic call is “active; positive”.
